{"source": "patent US11612573B2", "about": "“Topical pharmaceutical compositions” (Dermavant Sciences GmbH, priority 2015, dated 2023)", "key": {"[1]": {"assay": "solubility of the active ingredient in solvents", "format": "physicochemical", "description": "The solubility of the active ingredient in different solvents was determined. […] The following formulations were prepared with 5%, 10%, 15% and 20% MCT (Formulations 15-18). Two formulations (Formulations 19 and 20) were also prepared where Polawax (a proprietary blend of cetostearyl alcohol and emulsifiers) was replaced with cetostearyl alcohol and additional emulsifier."}, "[2]": {"assay": "in vivo", "settings": "minipig, topical or ocular, 4 % cream, BID"}, "[3]": {"assay": "in vivo", "settings": "rat, sc, 3 mg/kg/day"}, "[4]": {"settings": "Dermal 4% cream, BID, Minipig, 13 weeks"}, "[5]": {"assay": "28 day twice daily topical administration, toxicokinetics, dermal irritancy and toxicity", "format": "in vivo, Gottingen minipigs", "settings": "for concentration at 29 day: Skin Concentration", "description": "Following dose application on each dosing day, the dose sites were semi-occluded for approximately 20±1 hours from the first dose and then gently washed before the next dose was applied."}, "[6]": {"settings": "Gao et al., Journal of Polymer Research 2011; cited from earlier work"}, "[7]": {"system": "AhR pathway", "settings": "intestinal human colon adenocarcinoma"}}, "note": "Marks after values point to notes of the source that are not given here."}
{"smiles": "CC(C)c1c(O)cc(/C=C/c2ccccc2)cc1O", "note": "[3,5-Dihydroxy-4-isopropyl-trans-stilbene]", "values": [{"measurement": "solubility in medium chain triglycerides (MCT)", "setting": "[1]", "value": "good solubility"}, {"measurement": "solubility in water", "setting": "[1]", "value": "not soluble"}, {"measurement": "AUC at 13 weeks", "setting": "[2]", "value": 99, "unit": "ng·h/mL"}, {"measurement": "Cmax", "setting": "[2]", "value": 7.13, "unit": "ng/mL"}, {"measurement": "Cmax", "setting": "[3]", "value": 31.6, "unit": "ng/mL"}, {"measurement": "Cmax NOAEL", "setting": "[4]", "value": "7.13* ng/mL"}, {"measurement": "survival to scheduled necropsy", "setting": "[5]; 28 days", "value": "All animals survived"}, {"measurement": "Tmax", "setting": "[5]; both sexes, Gottingen, minipig, in vivo, 60 mg/kg/day", "value": "1 to 3", "unit": "h"}, {"measurement": "NOAEL at 28 days", "setting": "[5]; both sexes, Gottingen, minipig, in vivo, topical or ocular, highest dose tested, 28 days, read-out: NOAEL for dermal irritation or systemic toxicity", "value": 60, "unit": "mg/kg/day"}, {"measurement": "concentration at 29 day", "setting": "[5]; female, Gottingen, minipig, 10 mg/kg/day, Epidermis/Upper Dermis", "value": 2540, "unit": "ng/g"}, {"measurement": "concentration at 29 day", "setting": "[5]; female, Gottingen, minipig, 20 mg/kg/day, Epidermis/Upper Dermis", "value": 2270, "unit": "ng/g"}, {"measurement": "concentration at 29 day", "setting": "[5]; female, Gottingen, minipig, 20 mg/kg/day, Lower Dermis", "value": 305, "unit": "ng/g"}, {"measurement": "concentration at 29 day", "setting": "[5]; female, Gottingen, minipig, 60 mg/kg/day, Epidermis/Upper Dermis", "value": 6530, "unit": "ng/g"}, {"measurement": "concentration at 29 day", "setting": "[5]; female, Gottingen, minipig, 60 mg/kg/day, Lower Dermis", "value": 3040, "unit": "ng/g"}, {"measurement": "AUC(0-t)", "setting": "[5]; female, Gottingen, minipig, in vivo, topical or ocular, 60 mg/kg/day", "value": 4.84, "unit": "ng·h/mL"}, {"measurement": "concentration at 29 day", "setting": "[5]; male, Gottingen, minipig, 10 mg/kg/day, Epidermis/Upper Dermis", "value": 4830, "unit": "ng/g"}, {"measurement": "concentration at 29 day", "setting": "[5]; male, Gottingen, minipig, 10 mg/kg/day, Lower Dermis", "value": 166, "unit": "ng/g"}, {"measurement": "concentration at 29 day", "setting": "[5]; male, Gottingen, minipig, 20 mg/kg/day, Epidermis/Upper Dermis", "value": 3950, "unit": "ng/g"}, {"measurement": "concentration at 29 day", "setting": "[5]; male, Gottingen, minipig, 20 mg/kg/day, Lower Dermis", "value": 615, "unit": "ng/g"}, {"measurement": "concentration at 29 day", "setting": "[5]; male, Gottingen, minipig, 60 mg/kg/day, Epidermis/Upper Dermis", "value": 10000, "unit": "ng/g"}, {"measurement": "concentration at 29 day", "setting": "[5]; male, Gottingen, minipig, 60 mg/kg/day, Lower Dermis", "value": 3660, "unit": "ng/g"}, {"measurement": "dermal irritation at the dose site", "setting": "[5]; minipig, in vivo, 60 mg/kg/day", "value": "no test article-related dermal irritation"}, {"measurement": "sensitivity to oxidation and photo degradation", "setting": "[6]", "value": "sensitive to oxidation and photo degradation"}, {"measurement": "activity on the AhR pathway", "setting": "[7]", "value": "activator"}]}
